From patent US20250059202A1, “CRYSTAL FORM OF FUSED RING DERIVATIVE, AND PREPARATION METHOD THEREFOR AND USE THEREOF” (SHANGHAI YINGLI PHARMACEUTICAL CO., LTD, priority 2022, published 2025)
“And” between values parts separate entries of the source, which are not always exact repeats. Identical values can stand only once.

Key:
Format in all cases: physicochemical
[1] = Hygroscopicity under condition of high humidity
[2] = Influencing factor stability test, light (4500±500 Lux, 25° C.)
[3] = Heating experiments (105° C., XRPD); conditions: about 1 hour
[4] = Influencing factor stability test, high humidity (25° C., RH92.5±5%)
[5] = Accelerated stability (40±2° C., RH 75±5%)
[6] = Dynamic Vapor Sorption (DVS)
Method: An Advantage 1.0 dynamic moisture adsorption instrument from SMS was used to detect, the temperature is 25° C., the relative humidity range is 0%-95%, humidity change step is relative humidity 5%, when the value of the mass change rate dm/dt is less than 0.002%, it is considered equilibrium of the balance, when the mass change rate is less than 0.01%/minute within 5 minutes, it is considered as standards of equilibrium in detection process, the maximum equilibrium time is 2 hours.

[7] = Influencing factor stability test, high temperature (60±2° C.)
[8] = Stability of crystal form I in solvent at room temperature (suspension equilibrium, XRPD)
[9] = Stability of crystal form I in solvent at high temperature (50° C., XRPD)
[10] = Competition experiments of crystal form I and crystal form IV in solvents at room temperature; conditions: 7 days, each tested solvent

Structure (SMILES): CC(C)(Cc1cc2c(-c3ccc(C#N)cc3)cncc2s1)C(=O)O [amorphous form, 3-[4-(4-Cyanophenyl)thieno[2,3-c]pyridin-2-yl]-2,2-dimethylpropanoic acid]
- hygroscopicity (in words) [1]: strong hygroscopicity

Structure (SMILES): CC(C)(Cc1cc2c(-c3ccc(C#N)cc3)cncc2s1)C(=O)O [crystal form I, 3-[4-(4-Cyanophenyl)thieno[2,3-c]pyridin-2-yl]-2,2-dimethylpropanoic acid]
- Assay ([2]; 0 day): 99.1%
- Polymorph ([2]; 0 day): Crystal form I
- Total impurities ([2]; 0 day): 0.05%
- Water content ([2]; 0 day): 0.05%
- Assay ([2]; 5 days): 99.8%
- Polymorph ([2]; 5 days): Crystal form I
- Total impurities ([2]; 5 days): 0.07%
- Water content ([2]; 5 days): 0.04%
- Assay ([2]; 10 days): 100.3%
- Polymorph ([2]; 10 days): Crystal form I
- Total impurities ([2]; 10 days): 0.12%
- Water content ([2]; 10 days): 0.09%
- XRPD after heating compared to before heating [3]: unchanged
- Assay ([4]; 0 day): 99.1%
- Polymorph ([4]; 0 day): Crystal form I
- Total impurities ([4]; 0 day): 0.05%
- Water content ([4]; 0 day): 0.05%
- Assay ([4]; 5 days): 100.1%
- Polymorph ([4]; 5 days): Crystal form I
- Total impurities ([4]; 5 days): 0.07%
- Water content ([4]; 5 days): 0.06%
- Assay ([4]; 10 days): 100.6%
- Polymorph ([4]; 10 days): Crystal form I
- Total impurities ([4]; 10 days): 0.07%
- Water content ([4]; 10 days): 0.09%
- Assay ([5]; 0 day): 99.1%
- Total impurities ([5]; 0 day): 0.05%
- Water content ([5]; 0 day): 0.04%
- Assay ([5]; 1 month): 99.2%
- Total impurities ([5]; 1 month): 0.05%
- Water content ([5]; 1 month): 0.06%
- Assay ([5]; 2 months): 98.6%
- Total impurities ([5]; 2 months): 0.03%
- Water content ([5]; 2 months): 0.03%
- Assay ([5]; 3 months): 98.5%
- Total impurities ([5]; 3 months): 0.03%
- Water content ([5]; 3 months): 0.04%
- Assay ([5]; 6 months): 99.7%
- Total impurities ([5]; 6 months): 0.05%
- Water content ([5]; 6 months): 0.10%
- hygroscopicity (in words) [6]: non-hygroscopic
- mass increase compared with the initial mass (DVS) ([6]; relative humidity from 0 to 95%, 25° C.): 0.00944% and 0.01%
- Assay ([7]; 0 day): 99.1%
- Polymorph ([7]; 0 day): Crystal form I
- Total impurities ([7]; 0 day): 0.05%
- Water content ([7]; 0 day): 0.05%
- Assay ([7]; 5 days): 101.1%
- Polymorph ([7]; 5 days): Crystal form I
- Total impurities ([7]; 5 days): 0.07%
- Water content ([7]; 5 days): 0.04%
- Assay ([7]; 10 days): 100.0%
- Polymorph ([7]; 10 days): Crystal form I
- Total impurities ([7]; 10 days): 0.07%
- Water content ([7]; 10 days): 0.04%
- crystal form after suspension equilibrium (XRPD) ([8]; 7 days, single organic solvents (methanol, ethanol, isopropanol, acetone, ethyl acetate etc.)): unchanged
- crystal form after suspension equilibrium (XRPD) ([8]; 14 days, water and methanol-, ethanol-, isopropanol-, acetone-water mixtures): unchanged
- crystal form after suspension equilibration (XRPD) ([9]; 30 days, methanol-water, ethanol-water, isopropanol-water, acetone-water 50:50): unchanged
- crystal form after suspension equilibration (XRPD) ([9]; 43 days, methanol, ethanol, isopropanol, acetone or ethyl acetate): unchanged

Structure (SMILES): CC(C)(Cc1cc2c(-c3ccc(C#N)cc3)cncc2s1)C(=O)O [crystal form III, 3-[4-(4-Cyanophenyl)thieno[2,3-c]pyridin-2-yl]-2,2-dimethylpropanoic acid]
- XRPD after heating compared to before heating [3]: transform to the crystal form I

Structure (SMILES): CC(C)(Cc1cc2c(-c3ccc(C#N)cc3)cncc2s1)C(=O)O [crystal form IV, 3-[4-(4-Cyanophenyl)thieno[2,3-c]pyridin-2-yl]-2,2-dimethylpropanoic acid]
- XRPD after heating compared to before heating [3]: unchanged
- solid form after competition between crystal form I and crystal form IV (XRPD) [10]: transformed to the crystal form I

Structure (SMILES): CC(C)(Cc1cc2c(-c3ccc(C#N)cc3)cncc2s1)C(=O)O [crystal form VI, 3-[4-(4-Cyanophenyl)thieno[2,3-c]pyridin-2-yl]-2,2-dimethylpropanoic acid]
- XRPD after heating compared to before heating [3]: transform to the crystal form I
